The source of these data is patent US20170202835A1, “OSMOLYTE-CONTAINING PREPARATION FOR THE TREATMENT OF DRY MUCOUS MEMBRANES” (Bitop AG, priority 2007, published 2017).

Entries after “also recorded” stand apart in the source; their conditions may differ.

For the assay, the system named is TR146 cells. The experiment in a line: Mucus production in TR146 cells (PAS staining, image analysis). The assay is classed as cell-based, human. The conditions noted are these: 0.5% FCS, 16 h incubation. How it is done: To evaluate possible effects of compatible solutes on mucus production an in vitro cell culture model was used. For this purpose a mucus producing cell line, TR146, served as a model for the situation in the human mouth. The cells were incubated with ectoine and other substances. After treatment the cells were stained with PAS (Periodic Acid-Schiff) to determine the mucus content.
TR146 cells were seeded and grown on glass plates in 96 wells until they reached nearly confluence. The glass plates were coated with Poly-L-Lysine to ensure a good attachment of the cells. After reaching confluence the cells were set to 0.5% FCS (Fetal Calf Serum) and were incubated with ectoine, glucosylglycerole and prostaglandine for 16 h, whereas the control sample was not treated further. Prostaglandine is known in the literature to stimulate mucus production (Tani et al., Biol Pharm Bull 25 (1), 2002, 14-18).
After the incubation time, cells were stained with a PAS staining kit from Sigma Aldrich to stain the whole mucus on top of the cells. For analysis pictures were taken with the Dino Eye Capture Camera. The pictures were afterwards analyzed with Image J software.
These areas were marked with the Image software Image J and the pixel area was determined. The average results were given as percentage relative to the control (=100%) (FIG. 2).
For `OCC(CO)O[C@H]1O[C@H](CO)[C@@H](O)[C@H](O)[C@H]1O` [glucosylglycerol], the “Mucus production (PAS-stained pixel area relative to control = 100%)” value is “showed a tendency to stimulate the mucus production; also recorded: did so, too, although to a lesser extent”. The value for `CCCCC[C@H](O)/C=C/[C@H]1[C@H](O)CC(=O)[C@@H]1C/C=C\CCCC(=O)O` [Prostaglandin E2, reference compound] was “showed an induction of mucus production”. In the case of `CC1=NC(C(=O)O)CCN1` (stereo not drawn) [Ectoine, 1,4,5,6-tetrahydro-2-methyl-pyrimidine-4-carboxylic acid] it was “showed a tendency to stimulate the mucus production; also recorded: did so, too, although to a lesser extent”.
